According to paper PMC4169866 (Investigational New Drugs, 2014):
Entries after “also recorded” stand apart in the source; their conditions may differ. Counter-ions that a name gives are not always drawn.

Tests used:
pRb (pSer780) colo-205 = assay: Cellular assay for inhibition of p-Rb (Ser780), colo-205 (Acumen); type: cell-based; conditions: Homo sapiens, Fig. 2a, as given in discussion
Experimental: (§1) Details for the cellular assays are provided in the supplemental materials. Briefly, image-based assays (Acumen Explorer, TPP LabTech) were used for compound screening. […] After treatment, the cells were washed, fixed and stained with antibodies to detect phosphoproteins and Propidium Iodide to monitor DNA content. The plates were then analyzed on an Acumen Explorer (TTP Labtech). The IC50 and EC50 values are determined by curve fitting to a 4-parameter logistic for each output using ACTIVITY BASE™ software.
(§2) Fixed cells are blocked with 1% bovine serum albumin (BSA, Amersham cat # RPN412V) for 30 minutes. […] Image analysis is based on cellular fluorescent signals for identifying cells in different subpopulations. Assay outputs are a percentage of each identified subpopulations; percent phosphoRB positive, percent 2 N, and percent 4 N. The IC50 and EC50 values are determined by curve fitting to a 4-parameter logistic for each output using ACTIVITY BASE™.

[1] = system: Colo-205 colorectal xenografts; assay: Subcutaneous colo-205 xenograft antitumor activity; type: in vivo, mice; conditions: for Percent delta T/C, percent regression: Colo-205 colorectal
Experimental: (§3) All animal studies were performed in accordance with American Association for Laboratory Animal Care institutional guidelines, and all protocols were approved by the Eli Lilly and Company Animal Care and Use Committee. Tumor cell lines were grown, harvested, and resuspended in a 1:1 mixture of serum-free media and matrigel (BD Biosciences), and 5 × 10^6 cells were injected subcutaneously in the rear flank of 5-to-6-week-old CD1 nu/nu female mice (Charles River Laboratories for MV4-11, mice from Harlan Laboratories for others).
(§4) When the mean tumor volume was approximately 150–300 mm^3, animals were randomized by tumor volume and the compound was administered. […] Gemcitabine was formulated in saline and administered by intraperitoneal injection. Tumor volume and body weight were measured twice weekly. When tumors were collected for biomarker analysis, the animals were asphyxiated with CO2 and the xenograft tumors excised, flash frozen in liquid nitrogen, and stored at −80 °C until analyzed. For analysis, tumor volume data were transformed to a log scale to equalize variance across time and treatment groups. The log volume data were analyzed with a 2-way repeated measures analysis of variance by time and treatment using the MIXED procedure in SAS software (version 9.2). The correlation model for the repeated measures was spatial power. Treated groups are compared to the control group at each time point.

TRKA = molecular target: T1, TRKA (Homo sapiens, UniProt P04629); assay: Millipore (UBI) kinase panel TRKA; type: biochemical; conditions: generated at millipore (UBI) kinase panel
T1 construct: purchased Millipore/UBI

[2] = PK/PD model, colo-205 bearing mice, continuous dosing ref 37; cited from earlier work
[3] = phase 1 study in advanced cancer patients ref 38, 39; cited from earlier work
PLK1 = PLK1 (Homo sapiens, UniProt P53350); assay: Biochemical kinase profiling PLK1
colo-205 cells = assay: DNA content / G1 arrest assay, colo-205 (Acumen); type: cell-based, human; conditions: for 4N cell population / S cell population / 2N cell population: Colo-205 cells
Experimental: as §1, §2

U2OS cells = assay: DNA content (cell cycle) in U2OS phenotypic assay; type: cell-based, human
Experimental: U20S cells are cultured in McCoy's 5A modified media (Invitrogen), supplemented with 10% FBS and plated in 96-well, flat-bottom plates at a density of 5,000 cells/well for incubation overnight. Compounds in DMSO stock solution are diluted serially 1:3 in McCoy's 5A media and incubated with cells for 16 hours for multiplexing pCTD/DNA content readouts. Cells are fixed with Prefer (Anatech LTD, MI) for 30 minutes at room temperature and permeated with 0.1% Triton-X 100 in PBS or cold methanol (-20°C) for 15 minutes, respectively. After blocking with 1% BSA/PBS for 30 min, cells are incubated with primary antibody (CTD p-Ser2, Covance) at 1:1000 dilution in 1% BSA/PBS containing 50 ug/ml RNAse ([…], Sigma) at 4°C overnight. […] Table S1 and Figure S1.

[4] = system: Rb-proficient MDA-MB-231 breast cancer cells; assay: Flow cytometry cell cycle distribution, MDA-MB-231; type: cell-based, human
Experimental: (§5) Flow cytometry was also used to determine cell cycle distribution in cell lines, as described in the supplemental materials.
(§6) Flow cytometry was used to determine cell cycle distribution in cell lines. Cells were cultured in growth media under subconfluent conditions and treated with indicated concentrations of compound solubilized in DMSO for 24 hours at 37°C/5% CO2. After treatment, cells were collected, washed once with 4° C PBS, and fixed with 70% ethanol/30% water at -20 °C for 30 minutes. Cells were then collected by centrifugation, washed once with PBS, and stained for 30 minutes at room temperature by the addition of 1 mL of propidium iodide/Triton X-100 staining solution (20µg/mL of propidium iodide, 200µg/mL DNase-free RNase A, 0.1%(v/v) Triton x-100). Cell cycle analysis was performed using a Cytomics™ FC500 (Coulter); data were analyzed using ModFit v3.1 software (Verity).

DRAK1 = molecular target: T2, DRAK1 (Homo sapiens, UniProt Q9UEE5); assay: Millipore (UBI) kinase panel DRAK1; type: biochemical; conditions: generated at millipore (UBI) kinase panel
T2 construct: purchased Millipore/UBI

[5] = parameters: method as in manuscript in preparation; conditions: ref manuscript in preparation; cited from earlier work
[6] = system: MV4-11 acute myelocytic leukemia (AML) cells; assay: Flow cytometry cell cycle distribution, MV4-11; type: cell-based, human
Experimental: as §5, §6

[7] = system: p-Rb, TopoIIα, pHH3 in colo-205 xenografts; conditions: 24 h after oral dosing
PLK3 = PLK3 (Homo sapiens, UniProt Q9H4B4); assay: Biochemical kinase profiling PLK3
ERK1 = ERK1 (Homo sapiens, UniProt P27361); assay: Biochemical kinase profiling ERK1
Aurora B = Aurora B (Homo sapiens, UniProt Q96GD4); assay: Biochemical kinase profiling Aurora B
pERK HCT116 = assay: pERK inhibition, HCT116; type: cell-based; conditions: Homo sapiens, HCT-116; read-out: pERK inh. HCT116 IC50
pERK A375 = assay: pERK inhibition, A375; type: cell-based; conditions: Homo sapiens, A-375; read-out: pERK inh. A375 IC50
cRaf = cRaf (Homo sapiens, UniProt P04049); assay: Biochemical kinase profiling cRaf
HIPK2 = molecular target: T3, HIPK2 (Homo sapiens, UniProt Q9H2X6); assay: Millipore (UBI) kinase panel HIPK2; type: biochemical; conditions: generated at millipore (UBI) kinase panel
T3 construct: purchased Millipore/UBI

[8] = system: Rb-deficient MDA-MB-468 breast cancer cells; assay: Flow cytometry cell cycle distribution, MDA-MB-468; type: cell-based, human; conditions: MDA-MB-468, concentrations up to 2,500 nmol/L
AKT1 = AKT1 (Homo sapiens, UniProt P31749); assay: Biochemical kinase profiling AKT1
Aurora A = Aurora A (Homo sapiens, UniProt O14965); assay: Biochemical kinase profiling Aurora A
bRaf = bRaf (Homo sapiens, UniProt P15056); assay: Biochemical kinase profiling bRaf
[9] = Tolerability in colo-205 xenograft-bearing mice; type: in vivo; conditions: 56-day schedules
Experimental: as §3, with “others). Tumor volume was estimated by using the formula: vol = l × w^2 × […], where one and w are perpendicular measured diameters, and one is greater than or equal to w.” for “others).”
When the mean tumor volume was approximately 150–300 mm^3, animals were randomized by tumor volume and the compound was administered. […]. Gemcitabine was formulated in saline and administered by intraperitoneal injection. Tumor volume and body weight were measured twice weekly. When tumors were collected for biomarker analysis, the animals were asphyxiated with CO2 and the xenograft tumors excised, flash frozen in liquid nitrogen, and stored at −80 °C until analyzed. […] The log volume data were analyzed with a 2-way repeated measures analysis of variance by time and treatment using the MIXED procedure in SAS software (version 9.2). […]

H460 lung xenografts = assay: Subcutaneous H460 xenograft antitumor activity; type: in vivo, mice; conditions: 50 mg/kg qdx21, day 35
Experimental: as §3
as §4, with “Treated groups are compared to the control group at each time point.” left out

MV4-11 AML xenografts = assay: Subcutaneous MV4-11 xenograft antitumor activity; type: in vivo, mice; conditions: 50 mg/kg qdx21, day 49
Experimental: as §3
as §4, with “Treated groups are compared to the control group at each time point.” left out

[10] = system: U87 MG glioblastoma xenografts; assay: Subcutaneous U87 MG xenograft antitumor activity; type: in vivo, mice; conditions: 50 mg/kg qdx21, day 31
Experimental: as §3
as §4, with “Treated groups are compared to the control group at each time point.” left out

Jeko1 MCL xenografts = assay: Subcutaneous Jeko1 xenograft antitumor activity; type: in vivo, mice; conditions: 100 mg/kg, day 45
Experimental: as §3
as §4, with “Treated groups are compared to the control group at each time point.” left out

pCTD (pSer2) U2OS = assay: Cellular assay for inhibition of RNA polymerase CTD (Ser2) phosphorylation (pCTD), U2OS; type: cell-based; conditions: Homo sapiens, n=1
Experimental: U20S cells are cultured in McCoy’s 5A modified media (Invitrogen), supplemented with 10% FBS and plated in 96-well, flat-bottom plates at a density of 5,000 cells/well for incubation overnight. Compounds in DMSO stock solution are diluted serially 1:3 in McCoy’s 5A media and incubated with cells for 16 hours for multiplexing pCTD/DNA content readouts. Cells are fixed with Prefer (Anatech LTD, MI) for 30 minutes at room temperature and permeated with 0.1% Triton-X 100 in PBS or cold methanol (-20°C) for 15 minutes, respectively. After blocking with 1% BSA/PBS for 30 min, cells are incubated with primary antibody (CTD p-Ser2, Covance) at 1:1000 dilution in 1% BSA/PBS containing 50 ug/ml RNAse (R6513, Sigma) at 4°C overnight. […] The IC50 and EC50 values are determined by curve fitting to a 4-parameter logistic for each output using ACTIVITY BASE™.
The assay detects CDK9 activity through both the inhibition of phosphorylation ser2 of the C-terminal repeat domain (pCTD) of RNA polymerase II, and a CDK9-modulated G2/M arrest [accumulation of cells with 4N DNA content]

[11] = system: RRM1 expression in Calu-6 xenografts; assay: Western blot of RRM1 in Calu-6 xenograft tumors; type: in vivo, mice; conditions: 150 mg/kg dose, Calu-6 tumors 24 h after last dose
Experimental: as §4

Calu-6 lung xenografts = assay: Subcutaneous Calu-6 xenograft antitumor activity; type: in vivo, mice; conditions: 50 mg/kg LY2835219 oral, 60 or 150 mg/kg gemcitabine i.p.
Experimental: as §3
as §4, with “Treated groups are compared to the control group at each time point.” left out

[12] = colo-205 xenograft dose response

Aurora A, sequence (O14965 whole entry): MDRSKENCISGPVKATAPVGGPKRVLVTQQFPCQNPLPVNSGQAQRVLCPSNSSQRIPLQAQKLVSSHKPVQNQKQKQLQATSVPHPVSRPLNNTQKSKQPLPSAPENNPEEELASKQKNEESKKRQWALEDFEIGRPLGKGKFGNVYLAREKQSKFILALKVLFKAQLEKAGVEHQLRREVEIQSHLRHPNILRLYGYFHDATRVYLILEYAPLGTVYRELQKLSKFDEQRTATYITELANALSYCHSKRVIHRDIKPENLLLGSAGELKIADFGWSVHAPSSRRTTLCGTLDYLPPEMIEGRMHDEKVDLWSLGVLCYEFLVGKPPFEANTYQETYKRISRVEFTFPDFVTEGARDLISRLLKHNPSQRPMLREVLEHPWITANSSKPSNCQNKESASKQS
Aurora B, sequence (Q96GD4 whole entry): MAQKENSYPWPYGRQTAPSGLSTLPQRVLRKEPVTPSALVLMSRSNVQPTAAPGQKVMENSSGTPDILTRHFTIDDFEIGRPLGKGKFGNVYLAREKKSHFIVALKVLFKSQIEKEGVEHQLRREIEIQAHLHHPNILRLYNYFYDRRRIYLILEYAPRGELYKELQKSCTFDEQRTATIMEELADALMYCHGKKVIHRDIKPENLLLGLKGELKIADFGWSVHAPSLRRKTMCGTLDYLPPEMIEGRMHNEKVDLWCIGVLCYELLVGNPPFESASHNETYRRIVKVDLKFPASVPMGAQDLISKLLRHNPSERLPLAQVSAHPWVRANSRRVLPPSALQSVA
PLK1, sequence (P53350 whole entry): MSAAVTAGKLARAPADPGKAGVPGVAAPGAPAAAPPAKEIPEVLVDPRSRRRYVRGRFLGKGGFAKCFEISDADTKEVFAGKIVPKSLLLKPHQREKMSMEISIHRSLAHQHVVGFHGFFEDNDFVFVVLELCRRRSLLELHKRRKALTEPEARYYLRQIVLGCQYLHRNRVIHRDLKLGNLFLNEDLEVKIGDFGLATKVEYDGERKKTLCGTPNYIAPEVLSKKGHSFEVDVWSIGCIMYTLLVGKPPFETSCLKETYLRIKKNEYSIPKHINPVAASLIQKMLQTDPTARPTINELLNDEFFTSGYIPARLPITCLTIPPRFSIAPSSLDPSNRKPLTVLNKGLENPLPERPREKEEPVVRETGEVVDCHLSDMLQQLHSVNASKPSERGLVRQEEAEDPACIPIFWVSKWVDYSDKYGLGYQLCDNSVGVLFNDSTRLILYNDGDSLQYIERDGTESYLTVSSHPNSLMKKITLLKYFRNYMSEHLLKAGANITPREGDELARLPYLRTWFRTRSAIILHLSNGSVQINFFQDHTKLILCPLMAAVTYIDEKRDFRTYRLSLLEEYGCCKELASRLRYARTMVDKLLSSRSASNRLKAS
T2 sequence (Q9UEE5 whole entry): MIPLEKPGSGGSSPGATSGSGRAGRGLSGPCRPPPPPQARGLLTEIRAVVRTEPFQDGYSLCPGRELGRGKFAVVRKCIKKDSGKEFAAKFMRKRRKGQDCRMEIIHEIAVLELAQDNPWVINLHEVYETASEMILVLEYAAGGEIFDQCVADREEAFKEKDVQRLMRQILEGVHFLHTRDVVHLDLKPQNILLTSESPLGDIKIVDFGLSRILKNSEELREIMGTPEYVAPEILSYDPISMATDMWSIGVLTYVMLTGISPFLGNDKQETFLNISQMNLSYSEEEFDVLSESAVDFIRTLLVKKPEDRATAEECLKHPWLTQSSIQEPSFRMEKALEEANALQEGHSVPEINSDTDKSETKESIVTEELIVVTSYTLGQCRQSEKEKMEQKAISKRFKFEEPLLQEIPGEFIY
bRaf, sequence (P15056 whole entry): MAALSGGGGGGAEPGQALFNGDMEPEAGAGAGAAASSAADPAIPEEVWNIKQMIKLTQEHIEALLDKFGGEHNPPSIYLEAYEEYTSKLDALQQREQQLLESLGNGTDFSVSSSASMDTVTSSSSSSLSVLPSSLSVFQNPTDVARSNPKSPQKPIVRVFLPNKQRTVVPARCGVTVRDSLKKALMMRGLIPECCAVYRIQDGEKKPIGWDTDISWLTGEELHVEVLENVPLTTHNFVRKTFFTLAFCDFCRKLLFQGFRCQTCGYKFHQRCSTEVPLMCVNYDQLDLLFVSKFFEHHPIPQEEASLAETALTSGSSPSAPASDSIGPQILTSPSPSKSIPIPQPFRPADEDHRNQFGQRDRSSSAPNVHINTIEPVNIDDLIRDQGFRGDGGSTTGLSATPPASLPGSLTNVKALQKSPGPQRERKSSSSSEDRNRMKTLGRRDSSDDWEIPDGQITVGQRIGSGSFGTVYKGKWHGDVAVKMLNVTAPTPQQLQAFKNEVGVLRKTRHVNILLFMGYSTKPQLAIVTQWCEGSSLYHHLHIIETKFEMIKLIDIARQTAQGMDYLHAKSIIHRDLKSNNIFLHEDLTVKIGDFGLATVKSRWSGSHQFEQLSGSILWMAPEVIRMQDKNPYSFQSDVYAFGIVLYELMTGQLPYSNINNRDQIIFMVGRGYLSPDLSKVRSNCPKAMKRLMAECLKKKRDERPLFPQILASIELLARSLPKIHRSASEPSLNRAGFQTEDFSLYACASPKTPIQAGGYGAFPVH
PLK3, sequence (Q9H4B4 whole entry): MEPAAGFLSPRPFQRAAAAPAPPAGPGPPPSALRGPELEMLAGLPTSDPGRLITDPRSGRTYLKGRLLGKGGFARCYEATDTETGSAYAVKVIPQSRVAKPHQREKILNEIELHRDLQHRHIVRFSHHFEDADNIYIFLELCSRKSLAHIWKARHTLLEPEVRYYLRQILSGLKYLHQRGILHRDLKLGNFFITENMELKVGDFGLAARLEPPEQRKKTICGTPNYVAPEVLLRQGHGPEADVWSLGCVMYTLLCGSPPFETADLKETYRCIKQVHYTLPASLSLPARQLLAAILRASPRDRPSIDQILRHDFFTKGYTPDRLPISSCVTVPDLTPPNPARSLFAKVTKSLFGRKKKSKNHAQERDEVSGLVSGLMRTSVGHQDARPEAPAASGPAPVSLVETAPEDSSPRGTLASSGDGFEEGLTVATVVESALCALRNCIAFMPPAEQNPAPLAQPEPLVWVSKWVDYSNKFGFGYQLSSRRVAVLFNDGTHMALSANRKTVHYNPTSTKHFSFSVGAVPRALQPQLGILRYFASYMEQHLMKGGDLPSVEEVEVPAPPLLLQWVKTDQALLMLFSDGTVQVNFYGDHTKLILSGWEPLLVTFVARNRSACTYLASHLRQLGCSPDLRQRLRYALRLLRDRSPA
T3 sequence (Q9H2X6 whole entry): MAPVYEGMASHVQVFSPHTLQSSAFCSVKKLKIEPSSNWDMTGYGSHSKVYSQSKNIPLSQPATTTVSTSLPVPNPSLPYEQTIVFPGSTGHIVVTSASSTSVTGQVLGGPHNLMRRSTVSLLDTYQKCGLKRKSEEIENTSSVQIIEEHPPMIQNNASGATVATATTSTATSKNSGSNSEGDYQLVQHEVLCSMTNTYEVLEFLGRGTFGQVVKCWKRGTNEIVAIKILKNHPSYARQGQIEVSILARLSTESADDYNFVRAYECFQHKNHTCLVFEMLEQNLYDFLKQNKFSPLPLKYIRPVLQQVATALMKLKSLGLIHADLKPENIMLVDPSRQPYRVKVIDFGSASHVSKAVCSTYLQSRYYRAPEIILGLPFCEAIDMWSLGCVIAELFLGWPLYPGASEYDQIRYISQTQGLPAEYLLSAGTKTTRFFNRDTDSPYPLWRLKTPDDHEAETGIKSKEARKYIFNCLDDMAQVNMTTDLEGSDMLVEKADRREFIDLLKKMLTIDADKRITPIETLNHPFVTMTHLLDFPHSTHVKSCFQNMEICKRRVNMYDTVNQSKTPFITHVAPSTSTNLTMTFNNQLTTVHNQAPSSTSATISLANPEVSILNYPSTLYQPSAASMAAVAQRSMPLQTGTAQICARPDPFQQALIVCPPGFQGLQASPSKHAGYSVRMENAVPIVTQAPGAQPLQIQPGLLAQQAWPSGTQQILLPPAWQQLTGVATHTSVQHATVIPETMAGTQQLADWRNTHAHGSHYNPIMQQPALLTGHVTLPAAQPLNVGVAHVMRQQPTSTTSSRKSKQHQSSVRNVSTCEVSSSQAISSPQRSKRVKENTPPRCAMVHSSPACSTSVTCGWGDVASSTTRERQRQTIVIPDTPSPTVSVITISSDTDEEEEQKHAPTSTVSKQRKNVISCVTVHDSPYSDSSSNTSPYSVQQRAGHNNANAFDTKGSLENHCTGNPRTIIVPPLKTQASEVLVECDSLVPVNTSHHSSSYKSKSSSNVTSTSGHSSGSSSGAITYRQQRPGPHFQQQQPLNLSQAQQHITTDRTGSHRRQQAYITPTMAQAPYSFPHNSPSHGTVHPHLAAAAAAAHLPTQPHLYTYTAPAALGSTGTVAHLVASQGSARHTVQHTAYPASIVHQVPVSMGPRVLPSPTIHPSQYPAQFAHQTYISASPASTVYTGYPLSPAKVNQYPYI
cRaf, sequence (P04049 whole entry): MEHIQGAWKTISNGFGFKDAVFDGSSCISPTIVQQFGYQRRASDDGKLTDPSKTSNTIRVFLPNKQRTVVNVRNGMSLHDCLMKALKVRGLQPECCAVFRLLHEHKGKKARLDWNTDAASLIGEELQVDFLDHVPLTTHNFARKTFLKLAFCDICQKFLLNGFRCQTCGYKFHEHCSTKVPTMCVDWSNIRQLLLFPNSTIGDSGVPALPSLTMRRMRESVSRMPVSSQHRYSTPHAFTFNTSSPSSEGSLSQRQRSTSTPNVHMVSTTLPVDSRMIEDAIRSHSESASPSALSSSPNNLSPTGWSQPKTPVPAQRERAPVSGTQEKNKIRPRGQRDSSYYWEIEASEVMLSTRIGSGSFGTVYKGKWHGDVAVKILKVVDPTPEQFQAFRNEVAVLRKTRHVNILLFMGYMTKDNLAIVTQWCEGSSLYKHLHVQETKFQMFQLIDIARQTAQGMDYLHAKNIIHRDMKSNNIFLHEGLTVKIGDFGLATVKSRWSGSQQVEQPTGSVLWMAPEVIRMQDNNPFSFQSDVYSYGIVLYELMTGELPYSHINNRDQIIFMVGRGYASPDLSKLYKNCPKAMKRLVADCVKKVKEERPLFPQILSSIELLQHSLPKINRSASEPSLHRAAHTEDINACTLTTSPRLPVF

With `CCN1CCN(Cc2ccc(Nc3ncc(F)c(-c4cc(F)c5nc(C)n(C(C)C)c5c4)n3)nc2)CC1` [LY2835219, [5-(4-Ethyl-piperazin-1-ylmethyl)-pyridin-2-yl]-[5-fluoro-4-(7-fluoro-3-isopropyl-2-methyl-3H-benzoimidazol-5-yl)-pyrimidin-2-yl]-amine] the IC50 (pRb (pSer780) colo-205) was roughly 0.1 µM, the “minimally efficacious dose for tumor growth inhibition” value ([1]; colo-205 xenografts) was 12.5 mg/kg and the IC50 (TRKA) was 1.03 µM. The “minimum steady state trough plasma concentration required for robust efficacy” value [2] was “approximately 200 ng/mL; also recorded: approximately 400 nM”, the “mean maximum steady state plasma concentration” value [3] was 562 nM and the IC50 (PLK1) was greater than 20 µM. The “activity against PLK1” value (PLK1) was “Complete lack of activity”, the 4N cell population (colo-205 cells; 2.2 µM) was 16% and the S cell population (colo-205 cells; 2.2 µM) was 0%. The 2N cell population (colo-205 cells; 6.6 µM) was 75%, the 2N cell population (U2OS cells; 2.2 µM) was 56% and the S cell population (U2OS cells; 2.2 µM) was 6%. For the same compound, the 2N cell population (U2OS cells; 6.6 µM) was 44%, the S cell population (U2OS cells; 6.6 µM) was 7% and the “G1 arrest in Rb-proficient cells” value [4] was “induced a G1 arrest”. For the same compound, the IC50 (DRAK1) was 0.659 µM, the “ability to cross the blood–brain barrier” value [5] was “effectively cross the blood–brain barrier” and the “compound concentration up to which G1 arrest was sustained” value ([6]; MV4-11) was “up to 5,000 nmol/L”. The “concentration at which maximum G1 arrest was seen” value ([6]; MV4-11, 24 h) was no less than 320 nmol/L, the “TED70 for in vivo inhibition of TopoII” value [7, 12] was 14 mg/kg and the “TED70 for in vivo inhibition of pRb” value [7, 12] was 14 mg/kg. For the same compound, the “doses at which p-Rb, TopoIIα and pHH3 were all significantly inhibited” value ([7]; colo-205 xenografts) was no less than 12.5 mg/kg, the IC50 (PLK3) was greater than 20 µM and the IC50 (ERK1) was greater than 20 µM. The IC50 (Aurora B) was greater than 20 µM, the “activity against Aurora B” value (Aurora B) was “Complete lack of activity” and the IC50 (pERK HCT116) was greater than 20 µM. It also gave an IC50 (pERK A375) greater than 20 µM, an IC50 (cRaf) greater than 20 µM and an IC50 (HIPK2) of 0.031 µM. For the same compound, the “G1 arrest in Rb-deficient cells” value [8] was “no such effect”, the IC50 (AKT1) was greater than 20 µM and the IC50 (Aurora A) was greater than 20 µM. The “activity against Aurora A” value (Aurora A) was “Complete lack of activity”, the IC50 (bRaf) was 6.33 µM and the “histopathologic evaluation of intestinal tissue (jejunum, ileum, cecum)” value ([9]; days 41 and 69) was “no significant changes in intestinal tissue”. For the same compound, the hematologic changes ([9]; not dose-limiting) was “decreases in red cell mass and moderately reduced lymphocyte count”.

For `CC(=O)c1c(C)c2cnc(Nc3ccc(N4CCNCC4)cn3)nc2n(C2CCCC2)c1=O` [PD0332991, 6-Acetyl-8-cyclopentyl-5-methyl-2-[[5-(1-piperazinyl)-2-pyridinyl]amino] pyrido[2,3-d] pyrimidin-7 (8H)-one], the “Percent delta T/C, percent regression” value ([1]; 50 mg/kg (schedule not given), day 39) was 7%, the “Percent delta T/C, percent regression” value ([1]; 100 mg/kg qdx21, day 35) was −1% and the “Percent delta T/C, percent regression” value (H460 lung xenografts) was 60%. For the same compound, the “Percent delta T/C, percent regression” value (MV4-11 AML xenografts) was 16%, the “Percent delta T/C, percent regression” value [10] was 26% and the “Percent delta T/C, percent regression” value (Jeko1 MCL xenografts) was 12%.

Compound `CN1CC[C@H](c2c(O)cc(O)c3c(=O)cc(-c4ccccc4Cl)oc23)[C@H](O)C1` [Flavopiridol] has a 2N cell population (colo-205 cells; 2.2 µM) of 54%, a 4N cell population (colo-205 cells; 2.2 µM) of 44% and a S cell population (colo-205 cells; 2.2 µM) of 2%. The 2N cell population (colo-205 cells; 6.6 µM) was 50%, the 4N cell population (colo-205 cells; 6.6 µM) was 49% and the S cell population (colo-205 cells; 6.6 µM) was 1%. It also gave an EC50 (colo-205 cells; Homo sapiens, COLO 205, read-out: G1 arrest in Colo205 (increase in cells with 2N DNA content) EC50) greater than 20 µM, a 2N cell population (U2OS cells; 2.2 µM) of 22% and a 4N cell population (U2OS cells; 2.2 µM) of 74%. For the same compound, the S cell population (U2OS cells; 2.2 µM) was 4%, the 2N cell population (U2OS cells; 6.6 µM) was 23% and the 4N cell population (U2OS cells; 6.6 µM) was 72%. For the same compound, the S cell population (U2OS cells; 6.6 µM) was 5% and the IC50 (pCTD (pSer2) U2OS) was 0.147 µM.

In the case of `Nc1ccn([C@@H]2O[C@H](CO)[C@@H](O)C2(F)F)c(=O)n1` [gemcitabine, 2′,2′-difluorodeoxycytidine hydrochloric salt], the “increase of RRM1 compared to vehicle” value [11] is reported as 75% and the “tumor growth inhibition, compound alone” value (Calu-6 lung xenografts) is reported as “active in inhibiting tumor growth”.
